Biological target: Protein-arginine deiminase type-3 (Homo sapiens) (UniProt Q9ULW8)
Experiment: PubChem AID 651866
Settings: recombinant PAD3, citrulline colorimetric, time-dependent inactivation; hits give high values

Protein-arginine deiminase type-3 (Homo sapiens), sequence (Q9ULW8 whole entry, looked up): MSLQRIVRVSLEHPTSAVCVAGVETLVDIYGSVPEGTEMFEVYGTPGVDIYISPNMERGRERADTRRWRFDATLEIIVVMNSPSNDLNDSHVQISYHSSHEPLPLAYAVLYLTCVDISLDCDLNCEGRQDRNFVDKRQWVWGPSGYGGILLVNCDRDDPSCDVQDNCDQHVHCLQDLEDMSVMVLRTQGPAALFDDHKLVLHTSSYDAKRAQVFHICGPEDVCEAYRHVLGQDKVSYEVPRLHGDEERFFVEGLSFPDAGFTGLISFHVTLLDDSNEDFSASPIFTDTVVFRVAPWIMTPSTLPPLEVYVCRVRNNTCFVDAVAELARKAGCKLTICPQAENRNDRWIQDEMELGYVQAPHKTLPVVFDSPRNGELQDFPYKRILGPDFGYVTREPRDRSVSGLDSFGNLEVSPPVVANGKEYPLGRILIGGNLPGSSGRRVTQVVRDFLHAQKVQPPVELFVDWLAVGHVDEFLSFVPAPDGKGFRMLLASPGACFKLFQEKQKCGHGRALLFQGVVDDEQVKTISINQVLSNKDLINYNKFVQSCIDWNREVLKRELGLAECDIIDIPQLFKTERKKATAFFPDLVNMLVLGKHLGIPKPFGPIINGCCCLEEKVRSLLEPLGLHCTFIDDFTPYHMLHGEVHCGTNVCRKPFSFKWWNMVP

SMILES: NC1=CC(=O)c2ccc(-c3cccc(C(=O)O)n3)nc2C1=O
- kinact/KI: 31.7 M⁻¹ s⁻¹

Reference: PubChem BioAssay AID651866 (The Scripps Research Institute Molecular Screening Center, 2012)
